US20230255970A1, “COMPOSITIONS AND METHODS FOR TREATING PROLIFERATIVE DISEASES” (The Broad Institute, Inc., priority 2020, published 2023)
“Also recorded” adds a separate entry of the source. Where two headings read alike, the source gives them in different places.

Tests used:
[1] = system: YAP1 mRNA; settings: cited from earlier work
[2] = system: KP230 cells; assay: qRT-PCR of Yap1 and target genes in KP230 cells; type: cell-based, mouse
Text: (§1) YAP1 cell culture and treatments: Eisinger lab: Murine KP230 cells, a Yap1-dependent cancer cell line, were derived from a tumor from the KP mouse model (Kras^G12/D; Trp53^f/fl), as described in Eisinger-Mathason, T. S. K. et al., Proc. Natl. Acad. Sci. U.S.A 112 (2015): E3402-11, which is hereby incorporated by reference in its entirety. STS-109 UPS cells were derived from a human UPS tumor and validated by Rebecca Gladdy, MD (Sinai Health System, Toronto, Ontario, Canada). TC32 cells were a gift from Patrick Grohar, MD, PhD (Children's Hospital of Philadelphia). HT-1080, HCT-116, and HEK293T cells were purchased from ATCC. KP230, HT-1080, and HEK-293T cells were grown in DMEM with 10% FBS, 1% L-glutamine, and 1% penicillin/streptomycin (P/S). […]
YAP1-related qRT-PCR: Total RNA from cultured cells was isolated with the QIAGEN RNeasy mini kit, and cDNA was synthesized with the High-Capacity RNA-to-cDNA kit (Life Technologies). qRT-PCR analysis was performed with TaqMan “best coverage” probes on a ViiA7 instrument. […] Relative expression was calculated using the ddCt method.

[3] = system: TEAD luciferase reporter; assay: YAP1-responsive TEAD luciferase reporter assay in HEK293T cells; type: cell-based; settings: 10 μM, 48 h, HEK-293 cells
Experimental: A TEAD luciferase reporter was co-transfected with or without a Yap expression construct into HEK293T cells followed by treatment for 48 hours with DMSO or the indicated compounds. The data shown are the average of three samples within a representative experiment.
YAP1-related reporter assay: HEK293T cells were co-transfected using Lipofectamine 3000 (Thermo Fisher) with a TEAD luciferase reporter construct, 8×GTIIC-luciferase (Addgene plasmid #34615), a plasmid expressing Renilla Luciferase from a CMV promoter as a transfection control, along with a plasmid expressing 3×Flag-tagged wild-type YAP1 from a CMV promoter (pCMV5 backbone). Following transfection the cells were immediately treated with 0.2% DMSO, 10 μM NB4A, BRD-K34692511 or BRD-K28862419 and then lysed 48 hours later. Lysates were examined using the Dual-Luciferase Reporter Assay System (Promega) according to the manufacturer's protocol and measured using a SpectraMax iD3 plate reader (Molecular Devices). Firefly Luciferase activity from the TEAD reporter was normalized to Renilla Luciferase activity and then plotted as relative values.

[4] = system: HT-1080 fibrosarcoma cells; assay: Proliferation assay, HT-1080 cells; type: cell-based, human; settings: 10 μM daily for 72 hours
Text: as §1, with “(P/S). STS-109 cells were cultured in DMEM with 20% FBS, 1% L-glutamine, and 1% P/S. TC32 cells were grown in RPMI with 10% FBS, 1% L-glutamine, and 1% P/S. HCT-116 cells were cultured in McCoy's 5A medium with 10% FBS and 1% P/S. All cells were confirmed to be negative for mycoplasma contamination and were maintained in an incubator at 37C with 5% CO2.” for “(P/S).”
(§2) NB4A treatment: Cells were treated with 10 μM of each inhibitor or an equivalent volume of DMSO every 24 hours for 3-8 days, and counted with a hemocytometer with trypan blue exclusion daily (KP230, HT-1080, TC32, HCT-116), or every 2 days (STS-109).

[5] = system: KP230, TC32, STS-109, HT-1080, HCT-116 cells; assay: Trypan blue staining toxicity in the proliferation assay cell lines; type: cell-based; settings: all tested cell lines
Experimental: as §2

[6] = system: TC32 human Ewing's family sarcoma cells; assay: Proliferation assay, TC32 cells; type: cell-based; settings: 10 μM daily for 72 hours
Text: as §1, with “(P/S). STS-109 cells were cultured in DMEM with 20% FBS, 1% L-glutamine, and 1% P/S. TC32 cells were grown in RPMI with 10% FBS, 1% L-glutamine, and 1% P/S. HCT-116 cells were cultured in McCoy's 5A medium with 10% FBS and 1% P/S. All cells were confirmed to be negative for mycoplasma contamination and were maintained in an incubator at 37C with 5% CO2.” for “(P/S).”
as §2

[7] = system: YAP1 overexpression in U2OS cells; assay: Cell Painting morphological profile matching to YAP1/TAZ overexpression signature; type: cell-based, human
Method in brief: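 Morphological profiles from Cell Painting (six fluorescent labels) in a single cell line at one time point, standardized plate-wise against control mean and SD, replicate profiles averaged feature-wise. Gene and compound signatures scored by Pearson correlation, large positive or negative correlations counted as matches.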

[8] = system: mouse sarcoma cells; assay: qRT-PCR of Yap1/NF-κB target genes in mouse sarcoma cells; type: cell-based; settings: normalized to Hprt, Sdha, timecourse
Experimental: Mouse sarcoma cells were treated with 1 μM of compound for 48 h. RNA was isolated and qRT-PCR was performed for known NF-κB targets and proliferation-associated targets (i.e., Ki67, FOXM1). Target genes used to assess NF-κB inhibition specific to the cancer contexts are evaluated. For example, to test the efficacy of these compounds against NF-κB transcriptional activity in […] cells, expression of PHLDA1, IER2, and LITAF is determined. Compounds that alter expression of NF-κB target genes are assessed in proliferation studies using UPS, head and neck, prostate, and breast cancer cell lines previously associated with NF-κB dependence. IC50 studies and Western blot analyses are performed to evaluate total or phosphorylated p65 levels. Small molecules are then assessed to determine their mechanism of action. […] FIGS. 4-6 provide timecourse graphs showing the relative expression normalized to housekeeping genes.

[9] = system: KP230 cells; assay: Proliferation assay, KP230 cells; type: cell-based, mouse; settings: 10 μM daily for 72 hours
Text: YAP1 cell culture and treatments: Eisinger lab: Murine KP230 cells, a Yap1-dependent cancer cell line, were derived from a tumor from the KP mouse model (Kras^G12/D; Trp53^f/fl), as described in Eisinger-Mathason, T. S. K. et al., Proc. Natl. Acad. Sci. U.S.A 112 (2015): E3402-11, which is hereby incorporated by reference in its entirety. STS-109 UPS cells were derived from a human UPS tumor and validated by Rebecca Gladdy, MD (Sinai Health System, Toronto, Ontario, Canada). TC32 cells were a gift from Patrick Grohar, MD, PhD (Children's Hospital of Philadelphia). HT-1080, HCT-116, and HEK293T cells were purchased from ATCC. KP230, HT-1080, and HEK-293T cells were grown in DMEM with 10% FBS, 1% L-glutamine, and 1% penicillin/streptomycin (P/S). STS-109 cells were cultured in DMEM with 20% FBS, 1% L-glutamine, and 1% P/S. TC32 cells were grown in RPMI with 10% FBS, 1% L-glutamine, and 1% P/S. HCT-116 cells were cultured in McCoy's 5A medium with 10% FBS and 1% P/S. All cells were confirmed to be negative for mycoplasma contamination and were maintained in an incubator at 37C with 5% CO2. For experimental purposes, cells were cultured for up to 20 passages before being discarded, and were grown to approximately 50% confluence to circumvent the effects of high cell density on Yap1 expression and activity. All cell lines in the Eisinger laboratory were treated with 10 μM of each inhibitor or an equivalent volume of DMSO every 24 hours for 3 days, except for STS-109 cells, which were treated daily for 8 days.
as §2

SMILES: c1ccc(CNc2ncnc3ccccc23)cc1 [BRD-K43796186, N-benzylquinazolin-4-amine]
- YAP1 mRNA z-score ([1]; A375 cells, 6 and 24 hours): ~-0.7
- YAP1 mRNA z-score ([1]; HT29 cells, six hours): 3.16
- YAP1 mRNA ([1]; most cell types in the Connectivity Map): unaffected
- transcription of Yap1, its sarcoma target genes (Foxm1, Ccl2, Hbegf, Birc5, Rela) and Amot [2]: did not regulate transcription
- YAP1-responsive (TEAD) reporter activity [3]: no effect
- proliferation [4]: did not affect the proliferation
- toxicity by trypan blue staining [5]: did not exhibit overt toxicity
- proliferation [6]: inhibited the proliferation
- Cell Painting profile correlation with YAP1 overexpression [7]: 0.46
- Corr. to YAP1 cluster ([7]; Pearson correlation of Cell Painting signatures, U2OS cells): 0.4622
- Ccl2 expression [8]: significantly decreased
- Foxm1 expression [8]: reduced
- Yap1 gene expression ([8]; listed as NB4A): not affected; also recorded: not effected
- proliferation [9]: inhibited the proliferation
